# Results published in patent US11530206B2, “Phenylaminopyrimidine amide autophagy inhibitors and methods of use thereof” (Deciphera Pharmaceuticals, LLC, priority 2019, dated 2022).
# Experiments:
# [1] = target: T1, ULK1 kinase (Homo sapiens, UniProt O75385, E37A/K38A); experiment: Biochemical assay for ULK1.3 (coupled pyruvate kinase/lactate dehydrogenase assay, peptide substrate); settings: 0.1 nM ULK1 (residues 1-283), 1 mM ATP
# T1 construct: purchased Beryllium
# T1 sequence (O75385 1-283 E37A/K38A): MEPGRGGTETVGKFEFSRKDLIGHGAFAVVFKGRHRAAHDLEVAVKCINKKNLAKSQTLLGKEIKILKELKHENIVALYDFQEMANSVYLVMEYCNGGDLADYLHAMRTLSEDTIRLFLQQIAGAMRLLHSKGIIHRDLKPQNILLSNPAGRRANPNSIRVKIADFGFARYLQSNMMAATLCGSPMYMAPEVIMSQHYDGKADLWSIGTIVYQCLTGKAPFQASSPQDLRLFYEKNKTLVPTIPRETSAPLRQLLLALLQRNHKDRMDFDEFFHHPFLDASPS
# Method in brief: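 ULK1.3 activity was followed by continuous decrease in 340 nm absorbance over 6 h at 30 °C with 1% DMSO final. Rates were taken from the 2–3 h window and converted to percent inhibition against no-compound and known-inhibitor controls. IC50 values came from curve fitting.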
# [2] = system: ULK kinase; experiment: pATG13 levels of mutant BRAF A375 cells after treatment with ULK inhibitors in combination with trametinib (ELISA); format: cell-based, human; settings: A375 malignant melanoma cells (mutant BRAF), 250 nM trametinib, overnight, pS318-ATG13
# Description: A375 human malignant melanoma cancer cells (20000 cells/well) were added to a 96-well tissue-culture treated plate in 100 μL of pre-warmed DMEM medium supplemented with 10% characterized fetal bovine serum (Invitrogen, Carlsbad, Calif.), 100 units/mL penicillin G, and 100 μg/mL streptomycin and allowed to grow overnight at 37° C., 5% CO2, and 95% humidity. The following day, 100 μL of media containing trametinib or DMSO as a control was added to wells. […] A dose response of a test compound (0.5 μL per well) was added. DMSO (0.5 μL) was added to control wells. The plate was briefly shaken to mix wells and then incubated at 37° C. overnight. The next day, the media was aspirated and cells were washed with Dulbecco's Phosphate Buffered Saline (Gibco). Cells were lysed using MPER lysis buffer (Pierce, Rockford, Ill.) containing Halt Phosphatase and Protease Inhibitors (Pierce, Rockford, Ill.) and Phosphatase inhibitor cocktail 2 (Sigma, St. Louis, Mo.) at 4° C. for 10 minutes with shaking.
# Plate wells were washed with ELISA wash buffer. Cell lysate was added to wells and incubated at room temperature for 2 hours. Plate wells were washed with ELISA wash buffer. […] Plate wells were washed with ELISA wash buffer. […] Plate wells were washed with ELISA wash buffer. […] The reaction was stopped with 2N Sulfuric Acid. The plate was analyzed at on a plate reader measuring absorbance at 450 nm and 540 nm (background). Signal was calculated by first subtracting the background absorbance at 540 nm from the absorbance at 450 nm for each well. Next, the background corrected absorbance at 450 nm from blank wells was subtracted from test wells. Data was compared to control wells to determine % ATG13 phosphorylation. GraphPad Prism was used to calculate IC50 values.
# [3] = target: T2, ULK2 kinase (Homo sapiens, UniProt Q8IYT8); experiment: Biochemical assay for ULK2 (coupled pyruvate kinase/lactate dehydrogenase assay); settings: 9.7 nM ULK2 (residues 1-306, GST and His tag), myelin basic protein, 1 mM ATP; read-out: ULK2.2
# T2 construct: purchased Eurofins 14-772
# Description: Example 132. Biochemical Assay for ULK2 (SEQ. ID NO: 3)
# Activity of ULK2 kinase was determined spectroscopically using a coupled pyruvate kinase/lactate dehydrogenase assay that continuously monitors the ATP hydrolysis-dependent oxidation of NADH (e.g., Schindler et al. Science (2000) 289: 1938-1942). Assays were conducted in 384-well plates (100 uL final volume) using 9.7 nM ULK2 (Eurofins CAT #14-772), 0.25 mg/mL myelin basic protein, 1.5 units pyruvate kinase, 2.1 units lactate dehydrogenase, 1 mM phosphoenol pyruvate, 0.28 mM NADH and 1 mM ATP in assay buffer (100 mM Tris, pH 7.5, 15 mM MgCl2, 0.5 mM DTT, 0.1% octyl-glucoside, 0.002% (w/v) BSA, and 0.002% Triton X-100). Inhibition of ULK2 was measured by adding serial diluted test compound (final assay concentration of 1% DMSO). A decrease in absorption at 340 nm was monitored continuously for 6 hours at 30° C. on a multi-mode microplate reader (BioTek). The reaction rate was calculated using the 2-3 h time frame. The reaction rate at each concentration of compound was converted to percent inhibition using controls (i.e. reaction with no test compound and reaction with a known inhibitor) and IC50 values were calculated by fitting a four-parameter sigmoidal curve to the data using Prism (GraphPad software).
# [4] = target: T3, ULK1 kinase (Homo sapiens, UniProt O75385); experiment: Biochemical assay for ULK1.2 (coupled pyruvate kinase/lactate dehydrogenase assay); settings: 19 nM ULK1 (residues 1-314, His tag), myelin basic protein, 1 mM ATP
# T3 construct: purchased Eurofins 14-959
# T3 sequence (O75385 with tags, fused parts or gaps): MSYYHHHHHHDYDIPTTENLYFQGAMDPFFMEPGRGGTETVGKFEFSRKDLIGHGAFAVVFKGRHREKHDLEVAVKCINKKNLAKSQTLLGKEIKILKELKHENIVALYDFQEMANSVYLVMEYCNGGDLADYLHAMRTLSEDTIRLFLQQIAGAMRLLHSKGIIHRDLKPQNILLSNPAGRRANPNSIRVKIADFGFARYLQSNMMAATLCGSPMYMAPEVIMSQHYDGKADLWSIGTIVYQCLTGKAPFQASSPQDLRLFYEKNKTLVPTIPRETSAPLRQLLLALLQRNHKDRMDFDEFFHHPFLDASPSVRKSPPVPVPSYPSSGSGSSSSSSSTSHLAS
# Method in brief: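 Coupled assay followed the fall in absorbance at 340 nm continuously for 6 hours at 30 °C, with compounds serially diluted at 1% DMSO final. Rates from the 2–3 h window were normalised to no-compound and reference-inhibitor controls. IC50 came from a four-parameter sigmoidal fit.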
# T2 sequence (Q8IYT8 with tags, fused parts or gaps): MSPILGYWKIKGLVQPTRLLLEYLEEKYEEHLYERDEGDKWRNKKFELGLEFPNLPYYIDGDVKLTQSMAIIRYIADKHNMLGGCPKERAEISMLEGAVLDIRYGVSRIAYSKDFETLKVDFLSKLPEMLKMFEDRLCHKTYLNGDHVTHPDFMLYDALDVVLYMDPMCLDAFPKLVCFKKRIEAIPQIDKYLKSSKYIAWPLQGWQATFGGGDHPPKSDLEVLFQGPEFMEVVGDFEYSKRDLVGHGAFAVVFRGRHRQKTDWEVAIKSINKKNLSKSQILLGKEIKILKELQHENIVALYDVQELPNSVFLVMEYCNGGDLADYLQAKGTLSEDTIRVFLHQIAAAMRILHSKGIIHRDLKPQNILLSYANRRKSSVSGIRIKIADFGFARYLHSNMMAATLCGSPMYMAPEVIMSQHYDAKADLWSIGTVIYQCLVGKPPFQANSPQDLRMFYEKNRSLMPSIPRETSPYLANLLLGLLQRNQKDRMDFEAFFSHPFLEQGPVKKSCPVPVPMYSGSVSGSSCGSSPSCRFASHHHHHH
SMILES,IC50 [1],IC50 [2],IC50 [3],IC50 [4]
O=C1OCCCN1CCCNc1nc(Nc2ccc(N3CCNCC3)cc2C2CC2)ncc1C(F)(F)F [Example 99],1 to 25 nM,100 to 300 nM,25 to 100 nM,–
CCc1cc(N2CCNCC2)ccc1Nc1ncc(C(F)(F)F)c(NCCCN2CCOCCC2=O)n1 [Example 84],1 to 25 nM,100 to 300 nM,25 to 100 nM,–
CN1CCN(c2ccc(Nc3ncc(C(F)(F)F)c(NCCCN4CCCOC4=O)n3)c(C3CC3)c2)CC1 [Example 41],1 to 25 nM,10 to 100 nM,25 to 100 nM,–
CCc1cc(N2CC3CCC(C2)N3C)ccc1Nc1ncc(C(F)(F)F)c(NCCCN2CCOCCC2=O)n1 [Example 74],1 to 25 nM,–,1 to 25 nM,–
CCc1cc(N2CCN(C)CC2)ccc1Nc1ncc(C(F)(F)F)c(NCCCN2CCCOC2=O)n1 [Example 39],1 to 25 nM,10 to 100 nM,25 to 100 nM,1 to 25 nM
CCc1cc(N2CCNCC2)ccc1Nc1ncc(C(F)(F)F)c(NCCCN2CCCOC2=O)n1 [Example 46],1 to 25 nM,100 to 300 nM,25 to 100 nM,–
CN1CCN(c2ccc(Nc3ncc(C(F)(F)F)c(NCCCN4CCCCC4=O)n3)c(C3CC3)c2)CC1 [Example 14],1 to 25 nM,10 to 100 nM,1 to 25 nM,1 to 25 nM
CN1CCN(c2ccc(Nc3ncc(C(F)(F)F)c(NCCCN4CCOCCC4=O)n3)c(C3CC3)c2)CC1 [Example 70],1 to 25 nM,10 to 100 nM,25 to 100 nM,1 to 25 nM

# Results, then the compound that gave them:
IC50 [1],IC50 [2],IC50 [3],IC50 [4],SMILES
25 to 100 nM,10 to 100 nM,–,–,CCc1cc(N2CCN(C)CC2)c(F)cc1Nc1ncc(C(F)(F)F)c(NCCCN2CCOCCC2=O)n1 [Example 86]
1 to 25 nM,100 to 300 nM,25 to 100 nM,1 to 25 nM,CN1CCN(c2ccc(Nc3ncc(C(F)(F)F)c(NCCCN4CCCOCC4=O)n3)c(C3CC3)c2)CC1 [Example 52]
1 to 25 nM,–,–,1 to 25 nM,CCc1cc(N2CCN(C)CC2)ccc1Nc1ncc(Br)c(NCCCN2CCOCCC2=O)n1 [Example 76]
–,100 to 300 nM,100 to 500 nM,100 to 500 nM,CN1CCN(c2ccc(Nc3ncc(Cl)c(NCCCN4CCCOCC4=O)n3)c(C3CC3)c2)CC1 [Example 55]
